The values below come from patent US11903387B2 (priority 2016, dated 2024).

Where “and” joins values, the source holds several entries; their conditions need not be identical. Equal entries are not always repeated. Where two headings read alike, the source gives them in different places.

For one assay, the system named is Phytophthora infestans. Briefly: whole plant or invertebrate. The settings on record: for pest or weed control at 20 ppm: read-out: Test 1 Measured, component (b) alone 20 ppm; for pest or weed control at 100 ppm: read-out: Test 1 Measured, component (b) alone 100 ppm; for pest or weed control at 500 ppm: read-out: Test 1 Measured, component (b) alone 500 ppm. Format: in vivo.

Assay [1] relates to Pseudoperonospora cubensis. Briefly: Test 2: control effect against cucumber downy mildew. Format: in vivo. The settings on record: for pest or weed control at 20 ppm: component (b) alone 20 ppm; for pest or weed control at 100 ppm: component (b) alone 100 ppm; for pest or weed control at 500 ppm: component (b) alone 500 ppm.
Setting [2] is: Pseudoperonospora cubensis, component (b) alone, 10 ppm, read-out: Test 2 Measured.
The mark [3] stands for this setting: Pseudoperonospora cubensis, component (b) alone, 50 ppm, read-out: Test 2 Measured.
The mark [4] stands for this setting: Phytophthora infestans, in Solanum lycopersicum.
Where [5] appears, read: Pseudoperonospora cubensis, read-out: Test 2 Measured.
Setting [6] is: Phytophthora infestans, in Solanum lycopersicum, read-out: Test 1 Measured preventive value, component (b) alone, 2 ppm.
The mark [7] stands for this setting: Phytophthora infestans, in Solanum lycopersicum, read-out: Test 1 Measured preventive value, component (b) alone, 10 ppm.
Setting [8] is: Phytophthora infestans, in Solanum lycopersicum, read-out: Test 1 Measured, component (b) alone, 2 ppm.
The mark [9] stands for this setting: Phytophthora infestans, in Solanum lycopersicum, read-out: Test 1 Measured, component (b) alone, 10 ppm.
The mark [10] stands for this setting: Pseudoperonospora cubensis, component (b) alone, 2 ppm, read-out: Test 2 Measured.
Where [11] appears, read: component (b) alone 0.4 ppm, average of three repeats.
[12] abbreviates: component (b) alone 2 ppm, average of three repeats.
Setting [13] is: component (b) alone 10 ppm, average of three repeats.

Regarding `Fc1ccc(Oc2ccnc3cc(Cl)cc(Cl)c23)cc1` [Quinoxyfen], the pest or weed control at 10 ppm with Phytophthora infestans (Phytophthora infestans, in Solanum lycopersicum, read-out: Test 1 preventive value, Measured, applied alone, 10 ppm) came out at 0%; in assay [1] (setting [2]), 0%. The pest or weed control at 50 ppm with Phytophthora infestans (Phytophthora infestans, in Solanum lycopersicum, read-out: Test 1 preventive value, Measured, applied alone, 50 ppm) amounted to 0%; in assay [1] (setting [3]) it was 0%. The pest or weed control at 250 ppm in the assay with Phytophthora infestans (Phytophthora infestans, in Solanum lycopersicum, read-out: Test 1 preventive value, Measured, applied alone, 250 ppm) is 0%; in assay [1] (Pseudoperonospora cubensis, component (b) alone 250 ppm, read-out: Test 2 Measured), 0%.
With `N#Cc1c[nH]cc1-c1cccc2c1OC(F)(F)O2` [Fludioxonil], in the assay on Phytophthora infestans (setting [4]), the pest or weed control at 20 ppm is 0%, the pest or weed control at 100 ppm is 6.7% and the pest or weed control at 500 ppm turned out to be 18.3%. In assay [1] (setting [5]), the pest or weed control at 20 ppm came to 87.5%, the pest or weed control at 100 ppm is 97% and the pest or weed control at 500 ppm stood at 98.3%.
As for `CS(=O)(=O)Oc1ccc(F)c2c1COC(c1csc(C3CCN(C(=O)Cn4nc(C(F)F)cc4C(F)F)CC3)n1)OC2` (centres unmarked) [Compound 1-62, 4-[4-(6-fluoro-9-methylsulfonyloxy-1,5-dihydro-3H-2,4-benzodioxepin-3-yl)-2-thiazolyl]-1-[2-[3,5-bis(difluoromethyl)-1H-pyrazol-1-yl]acetyl]piperidine], the pest or weed control at 0.0024 ppm in the assay with Phytophthora infestans (Phytophthora infestans, in Solanum lycopersicum, read-out: Test 1 Measured, Compound 1-62 alone, 0.0024 ppm) turned out to be 59%; in assay [1] (Pseudoperonospora cubensis, Compound 1-62 alone, 0.0024 ppm, read-out: Test 2 Measured), 86%. In addition, the pest or weed control at 0.012 ppm was 98% with Phytophthora infestans (Phytophthora infestans, in Solanum lycopersicum, read-out: Test 1 Measured, Compound 1-62 alone, 0.012 ppm) and 100% in assay [1] (Pseudoperonospora cubensis, Compound 1-62 alone, 0.012 ppm, read-out: Test 2 Measured). Also, the pest or weed control at 0.06 ppm came to 100% with Phytophthora infestans (Phytophthora infestans, in Solanum lycopersicum, read-out: Test 1 Measured, Compound 1-62 alone, 0.06 ppm) and 100% in assay [1] (Pseudoperonospora cubensis, Compound 1-62 alone, read-out: Test 2 Measured).
Consider Propineb, for which the “Test 1 Measured” value was determined as 0.0 with Phytophthora infestans (component (b) alone, 2 ppm); 36.1 in the assay with Phytophthora infestans (component (b) alone, 10 ppm); 99.0 with Phytophthora infestans (component (b) alone, 50 ppm). Moreover, the “Test 1 Measured preventive value” in the assay on Phytophthora infestans (component (b) alone, 2 ppm) is recorded as 0.0; in the assay on Phytophthora infestans (component (b) alone, 10 ppm), 48.3; in the assay on Phytophthora infestans (component (b) alone, 50 ppm), 98.3. Besides, the “Test 2 Measured” value in assay [1] (component (b) alone, 2 ppm) came to 17.5; in assay [1] (component (b) alone, 10 ppm), 95; in assay [1] (component (b) alone, 50 ppm), 100. Moreover, the “Test 2 Measured preventive value” in assay [1] (component (b) alone, 2 ppm) is 7.5; in assay [1] (component (b) alone, 10 ppm), 94.3; in assay [1] (component (b) alone, 50 ppm), 100.
Take `CCCC1COC(Cn2cncn2)(c2ccc(Cl)cc2Cl)O1` (centres unmarked) [Propiconazole]: the pest or weed control at 8 ppm with Phytophthora infestans (Phytophthora infestans, in Solanum lycopersicum, read-out: Test 1 Measured, component (b) alone 8 ppm) stood at 0%; in assay [1] (Pseudoperonospora cubensis, component (b) alone 8 ppm, read-out: Test 2 Measured), 0%. For the same compound, the pest or weed control at 40 ppm with Phytophthora infestans (Phytophthora infestans, in Solanum lycopersicum, read-out: Test 1 Measured, component (b) alone 40 ppm) is 35%; in assay [1] (Pseudoperonospora cubensis, component (b) alone 40 ppm, read-out: Test 2 Measured) it was 7.5%. For the same compound, the pest or weed control at 200 ppm in the assay on Phytophthora infestans (Phytophthora infestans, in Solanum lycopersicum, read-out: Test 1 Measured, component (b) alone 200 ppm) worked out at 53.3%; in assay [1] (Pseudoperonospora cubensis, component (b) alone 200 ppm, read-out: Test 2 Measured), 57.5%.
As for `CCNc1nc(CC)c(C(=O)NC(C#N)c2cccs2)s1` (centres unmarked) [Ethaboxam], the “Test 1 Measured preventive value” in the assay on Phytophthora infestans (component (b) alone, 2 ppm) came to 95; in the assay with Phytophthora infestans (component (b) alone, 10 ppm) it was 98.3; in the assay with Phytophthora infestans (component (b) alone, 50 ppm), 97.8. For the same compound, the “Test 2 Measured preventive value” in assay [1] (component (b) alone, 2 ppm) was found to be 88.3; in assay [1] (component (b) alone, 10 ppm), 99.5; in assay [1] (component (b) alone, 50 ppm), 100.
Take `Cc1ccc(C(C)NC(=O)[C@@H](NC(=O)OC(C)C)C(C)C)cc1` (some centres unmarked) [Iprovalicarb]: the “Test 1 Measured” value in the assay on Phytophthora infestans (component (b) alone, 0.4 ppm) stood at 15; in the assay with Phytophthora infestans (component (b) alone, 2 ppm), 93.3; with Phytophthora infestans (component (b) alone, 10 ppm) it was 100. Further, the “Test 2 Measured” value is listed as 0 in assay [1] (component (b) alone, 0.4 ppm); 0 in assay [1] (component (b) alone, 2 ppm); 93.8 in assay [1] (component (b) alone, 10 ppm).
Turning to `O=C1C2CC=CCC2C(=O)N1SC(Cl)(Cl)Cl` (centres unmarked) [Captan], the pest or weed control at 2 ppm came to 5% with Phytophthora infestans (setting [6]), 10% in the assay with Phytophthora infestans (setting [8]) and 90.1% in assay [1] (setting [10]). In addition, the figures for the pest or weed control at 10 ppm (with Phytophthora infestans (setting [7]); in the assay on Phytophthora infestans (setting [9]); in assay [1] (setting [2])) were 71.7%, 64.5% and 99%, respectively. The pest or weed control at 50 ppm in the assay on Phytophthora infestans (Phytophthora infestans, in Solanum lycopersicum, read-out: Test 1 Measured preventive value, component (b) alone, 50 ppm) came out at 93.8%; with Phytophthora infestans (Phytophthora infestans, in Solanum lycopersicum, read-out: Test 1 Measured, component (b) alone, 50 ppm), 90%; in assay [1] (setting [3]), 99%. The “Test 2 Measured preventive value” in assay [1] (component (b) alone, 2 ppm) is 96 and 100; in assay [1] (component (b) alone, 10 ppm), 99.3; in assay [1] (component (b) alone, 50 ppm), 100 and 96.
As to `COCC(=O)N(c1c(C)cccc1C)[C@H](C)C(=O)OC` [Metalaxyl-M], the “Test 1 Measured preventive value” in the assay with Phytophthora infestans (setting [11]) worked out at 38.3; in the assay on Phytophthora infestans (setting [12]), 89.2; in the assay on Phytophthora infestans (setting [13]), 100.0; in the assay on Phytophthora infestans (component (b) alone, 0.4 ppm), 38.3; in the assay on Phytophthora infestans (component (b) alone, 2 ppm) it was 89.3; with Phytophthora infestans (component (b) alone, 10 ppm), 98.5. The “Test 1 Measured” value in the assay with Phytophthora infestans (component (b) alone, 0.4 ppm) is listed as 54.4; in the assay on Phytophthora infestans (component (b) alone, 2 ppm), 86.0; in the assay on Phytophthora infestans (component (b) alone, 10 ppm), 99.0. The “Test 2 Measured preventive value” in assay [1] (setting [11]) was 0; in assay [1] (setting [12]), 0; in assay [1] (setting [13]), 0; in assay [1] (component (b) alone, 0.4 ppm) it was 0; in assay [1] (component (b) alone, 2 ppm), 0; in assay [1] (component (b) alone, 10 ppm), 0. In addition, the “Test 2 Measured” value in assay [1] (component (b) alone, 0.4 ppm) worked out at 0; in assay [1] (component (b) alone, 2 ppm), 0; in assay [1] (component (b) alone, 10 ppm), 0.
Regarding `Cc1cc(C2CC2)nc(Nc2ccccc2)n1` [Cyprodinil], in the assay on Phytophthora infestans (setting [4]), the pest or weed control at 20 ppm came out at 0%, the pest or weed control at 100 ppm came to 0% and the pest or weed control at 500 ppm came to 0%. In addition, in assay [1] (setting [5]), the pest or weed control at 20 ppm stood at 0% and the pest or weed control at 100 ppm turned out to be 0%.
In the case of `CC(C)NC(=O)N1CC(=O)N(c2cc(Cl)cc(Cl)c2)C1=O` [Iprodione], in the assay with Phytophthora infestans (setting [4]), the pest or weed control at 20 ppm is 0%, the pest or weed control at 100 ppm was determined as 0% and the pest or weed control at 500 ppm is 5%. In assay [1] (setting [5]), the pest or weed control at 20 ppm was 0%, the pest or weed control at 100 ppm worked out at 0% and the pest or weed control at 500 ppm amounted to 0%.
Turning to `N#Cc1c(Cl)c(Cl)c(Cl)c(C#N)c1Cl` [Chlorothalonil], the pest or weed control at 0.4 ppm was found to be 0% with Phytophthora infestans (Phytophthora infestans, in Solanum lycopersicum, read-out: Test 1 Measured preventive value, component (b) alone, 0.4 ppm); 0% in the assay with Phytophthora infestans (Phytophthora infestans, in Solanum lycopersicum, read-out: Test 1 Measured, component (b) alone, 0.4 ppm); 41.8% in assay [1] (Pseudoperonospora cubensis, applied alone, 0.4 ppm, read-out: Test 2 preventive value, Measured); 0% in assay [1] (Pseudoperonospora cubensis, component (b) alone, 0.4 ppm, read-out: Test 2 Measured). The pest or weed control at 2 ppm was 53.3% with Phytophthora infestans (setting [6]); 62.1% in the assay with Phytophthora infestans (setting [8]); 100% in assay [1] (Pseudoperonospora cubensis, applied alone, 2 ppm, read-out: Test 2 preventive value, Measured); 80.5% in assay [1] (setting [10]). Besides, the pest or weed control at 10 ppm in the assay with Phytophthora infestans (setting [7]) turned out to be 100%; in the assay with Phytophthora infestans (setting [9]) it was 100%; in assay [1] (Pseudoperonospora cubensis, applied alone, 10 ppm, read-out: Test 2 preventive value, Measured), 100%; in assay [1] (setting [2]), 100%.
On to `Cc1cc(C(F)(F)F)nn1CC(=O)N1CCC(c2nc(C3OCc4cccc(OS(C)(=O)=O)c4CO3)cs2)CC1` (centres unmarked) [Compound 1-6, 4-[4-(6-methylsulfonyloxy-1,5-dihydro-3H-2,4-benzodioxepin-3-yl)-2-thiazolyl]-1-[2-[5-methyl-3-(trifluoromethyl)-1H-pyrazol-1-yl]acetyl]piperidine], for which the pest or weed control at 0.06 ppm is 25% in the assay with Phytophthora infestans (Phytophthora infestans, in Solanum lycopersicum, read-out: Test 1 Measured preventive value, Compound 1-6 alone 0.06 ppm, average of three repeats); 68.3% with Phytophthora infestans (Phytophthora infestans, in Solanum lycopersicum, read-out: Test 1 preventive value, Measured, applied alone, 0.06 ppm); 40% in assay [1] (Pseudoperonospora cubensis, applied alone, read-out: Test 2 preventive value, Measured). Further, the pest or weed control at 0.3 ppm with Phytophthora infestans (Phytophthora infestans, in Solanum lycopersicum, read-out: Test 1 Measured preventive value, Compound 1-6 alone 0.3 ppm, average of three repeats) is 99.5%; in the assay with Phytophthora infestans (Phytophthora infestans, in Solanum lycopersicum, read-out: Test 1 Measured preventive value, Compound alone, 0.3 ppm) it was 98.3%; in the assay with Phytophthora infestans (Phytophthora infestans, in Solanum lycopersicum, read-out: Test 1 Measured, Compound alone 0.3 ppm) it was 98%; in the assay with Phytophthora infestans (Phytophthora infestans, in Solanum lycopersicum, read-out: Test 1 preventive value, Measured, applied alone, 0.3 ppm), 97.7%; in assay [1] (Pseudoperonospora cubensis, Compound alone 0.3 ppm, read-out: Test 2 Measured), 98.5%; in assay [1] (Pseudoperonospora cubensis, applied alone, 0.3 ppm, read-out: Test 2 preventive value, Measured), 98%. Besides, the “Test 2 Measured preventive value” is 5 in assay [1] (Compound 1-6 alone 0.06 ppm, average of three repeats); 93.8 in assay [1] (Compound 1-6 alone 0.3 ppm, average of three repeats); 69.58 and 96.3 in assay [1] (Compound alone, 0.3 ppm).
